Reference: patent US20120010178A1, “METHODS AND COMPOUNDS FOR TREATMENT OF NEURODEGENERATIVE DISORDERS” (PRESIDENT AND FELLOWS OF HARVARD COLLEGE, priority 2008, published 2012)
Entries after “also recorded” stand apart in the source; their conditions may differ. Read-outs that look alike come from different tables or passages of the source.

Tests used:
[1] = test system: SMN; assay: High-content fibroblast screen for compounds that modulate SMN level; settings: human fibroblasts, 2-3 days with compound;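 note: Anti-SMN immunostaining with confocal imaging of nuclear and cytoplasmic SMN and gem counts, tested at 0.1, 1 and 10 uM, fold change relative to negative control wells on each plate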
Protocol: Human fibroblasts were incubated for 2-3 days with compounds from annotated collections. Cells were fixed and stained with an anti-SMN antibody. Confocal imaging was used to quantify SMN fluorescence in nucleus and cytoplasm and count Gems. Data were collected and subsequently analyzed by clustering compounds by suspected mechanism of action and chemical structure.
Following optimization of assay conditions on day 0, total of 500 human fibroblasts (GM09677 line) per well were seeded in 384-well plates, on day 3 they were treated with compounds (robot CyBio) from the annotated collections and on the 5 day plates were fixed and stained (robot MAPD) with an anti-SMN antibody and secondary antibody conjugated with 448 fluorophore (FIG. 19a). Compounds from the libraries were added in duplicate at three final concentrations of 10, 1 and 0.1 uM.
SMN detection was done on the automated confocal microscope Opera PerkinElmer with separate fluorescent exposures to 488 nM laser for and a UV light source to detect nuclei stained with Hoechst 33258 with a 20× objective.
After scanning on the Opera, an XML file extraction workflow, designed with Inforsense KDE, was used to assemble the data from multiple replicate plates of each HCS experiment including the quantitative parameters described above and chemical identities, chemical concentrations and indications of which wells were used for positive and negative controls. […] The fold-induction of SMN intensity values for each well treated with a library chemical were normalized to the SMN average intensity in multiple negative control wells per plate.
Since it is not known which form of SMN increase is the most essential, hits that scored in a duplicate at least in two different parameters greater than 1.3 fold at any of the three concentrations were selected (FIG. 19d). […] Further, 220 compounds were screened in the absence of anti-SMN primary antibody with the same assay conditions, to filter out the fluorescent compounds.

[2] = test system: SMN; assay: SMN immunofluorescence quantification (cytoplasm, nucleus, GEMs) in fibroblasts from SMA patients; type: cell-based, human; settings: for levels of cytoplasmic and nuclear SMN (in words): SMA patient fibroblasts, substance alone
Protocol: Specifically, fibroblasts from patients suffering from SMA were treated with Ionomycin (a channel modulator), Ouabain (a cardiac glycoside and channel modulator), PDGF, SAHA (an HDAC inhibitor), Lactacystin (a proteasome inhibitor) or WIN 55,212-2 (a cannabinoid receptor […] and GPCR ligand) for 72 hours. The cells were fixed with methanol/acetone and stained with Pharmingen BD antibodies, followed by 488 AlexaFluor staining. Images were obtained with 60× lens on Zeiss LSM510 META on an inverted confocal microscope.
For example, fibroblasts from patients suffering from SMA were treated with Ouabain, Digoxin or Lanatoside at a concentration of 0, 2.5 nM, 5 nM, 10 nM, 20 nM, 40 nM, 80 nM, […] for 72 hours. The cells were fixed with methanol/acetone and stained with Pharmingen BD antibodies, followed by 488 AlexaFluor staining. Images were obtained with 60× lens on Zeiss LSM510 META on an inverted confocal microscope.
An assay was established for high-content evaluation of SMN protein level in different cellular compartments after treatment with small molecules. SMN protein was visualized by immunofluorescent staining and multiple fields from each plate well were scanned by an automated confocal Opera microscope. […] For each well, the algorithm generated quantitative parameters representing number of cells, as well as SMN fluorescent intensity per cell in cytoplasm, nucleus, number and intensity of GEMs (FIG. 15). […] During the assay transfer to the robotic platform fixation with the ice cold methanol was technically limited, therefore to preserve the maximum possible window we chose to perform the screen on parental fibroblast with PFA fixation.
For fibroblast assays, human fibroblasts lines GM09677 (derived from patient with SMA type 1 disease) and GM03814 (derived from unaffected parental SMA carriers) were used (Coriell Cell Repositories). […] For secondary assays cells from GM09677 line were used.
Fibroblasts were grown in MEM media (Invitrogen) supplemented with 5% Fetal Bovine Serum (FBS, Invitrogen), 2 mM glutamine and 1% penicillin-streptomycin (100 U/ml) in a presence of 5% CO2 at 37° C. For drug treatments, cells were plated and treated 24 h later with 10 μM MG132 (Biomol International), […] Calpeptin (Biomol International), 10 mM ammonium chloride, 1 μM myristoylated PKI, or vehicle for the designated times.
(§1) Compounds were stored at appropriate temperature and dissolved accordingly to the manufacturers (Tocris, Enzo, EMD and Sigma-Aldrich) in DMSO (Sigma-Aldrich), unless stated otherwise (Monensin Na in EtOH, DMPQ in water). Growth factors and PDGF neutralizing antibodies (R&D Systems) were reconstituted with buffers recommended by the supplier. For generation of the dose curves, 1×10^3 fibroblasts were plated on to 96-well Greiner Senso plates (VWR) and treated with compounds on the second day then fixed and stained at the indicated time points. For GSK inhibitors and performing p-GSK3b(Ser9) detection, two days after plating growth media containing 5% FBS was replaced to the media with FBS reduced down to 0.5%, to starve cells for 72 hours. Addition of the GSK inhibitors was done in 5% FBS enriched media.

[3] = test system: SMN; assay: Inhibition of PDGF-stimulated SMN increase in fibroblasts by kinase/receptor inhibitors; type: cell-based, human; settings: SMA patient fibroblasts, PDGF plus inhibitor or neutralizing antibody
Protocol: Fibroblasts from patients suffering from SMA were treated with PDGF at a concentration of 0, 0.3 ng/ml, 0.63 ng/ml, 1.25 ng/ml, 2.5 ng/ml, 5 ng/ml, 10 ng/ml or 20 ng/ml, in the absence or in the presence of 25 uM DMPQ or 25 uM AG-1296 respectively for 72 hours. The levels of both cytoplasmic and nuclear SMN were detected and quantified using the method described in Example 2.
Fibroblasts from patients suffering from SMA were either control treated or treated with PDGF at a concentration of 0, 0.63 ng/ml, 1.25 ng/ml, 2.5 ng/ml, 5 ng/ml, 10 ng/ml or 20 ng/ml, in the absence or in the presence of 50 uM LY294002 or 2 uM P1-103 respectively for 72 hours. The levels of both cytoplasmic and nuclear SMN were detected and quantified using the method described in Example 2.
Fibroblasts from patients suffering from SMA were either control treated or treated with PDGF at a concentration of 0, 0.63 ng/ml, 1.25 ng/ml, 2.5 ng/ml, 5 ng/ml, 10 ng/ml or 20 ng/ml, in the absence or in the presence of 2 uM Papamycin for 72 hours. The levels of both cytoplasmic and nuclear SMN were detected and quantified using the method described in Example x.
A range of concentrations were tested in order not to miss the effects. SMN level were evaluated by Opera Evoteck in each cellular compartment and to assess the cell numbers that are summarized in the Table 3.
as §1, with “media. As previously described, starvation increases levels of constitutively activate GSK3b kinase, allowing to achieve a more dramatic inhibitory effect when GSK inhibitors are added together with growth factors that are also known to inhibit GSK by Ser-9 phosphorylation. […] For all compounds and growth factors control wells received solvent in amount equivalent to the highest concentration of the compound in a dose curve. For PDGF inhibitory studies, cells were pre-treated with kinase inhibitors for 2 hours and PDGF was added with a fresh kinase inhibitor solution and incubated for an additional 3 days.” for “media.”

[4] = molecular target: T1, GSK3b (Ser-9 phosphorylation) (Homo sapiens, UniProt P49841); assay: p-GSK(Ser9) phosphorylation in patient fibroblasts (western blot / immunofluorescence); type: cell-based
T1 construct: endogenous in cells; host or cells: SMA patient fibroblasts (GM09677), starved in 0.5% FBS before treatment
Protocol: as §1, with “media. As previously described, starvation increases levels of constitutively activate GSK3b kinase, allowing to achieve a more dramatic inhibitory effect when GSK inhibitors are added together with growth factors that are also known to inhibit GSK by Ser-9 phosphorylation. […] For all compounds and growth factors control wells received solvent in amount equivalent to the highest concentration of the compound in a dose curve. For PDGF inhibitory studies, cells were pre-treated with kinase inhibitors for 2 hours and PDGF was added with a fresh kinase inhibitor solution and incubated for an additional 3 days.” for “media.”

[5] = test system: PC12 cells; settings: cited from earlier work
[6] = test system: SMN; assay: SMN levels in mouse (ES-cell derived) motor neurons; type: cell-based; settings: for SMN levels in motor neurons (in words): mouse motor neurons
Protocol: Mouse HB9-GFP derived SMN deficient motor neuron cells were incubated for 2 days with compounds from libraries and collections.
Motor neurons were produced from mouse ES-cells expressing cherry fluorescent protein (CFP) under the control of the motor neuron-selective Hb9 promoter, as previously described (Wichterle et al., 2002).
GFP expressing motor neurons were derived from mouse ES cells as described below. After growing for approximately 1 week, motor neurons were treated with allsterpaullone. Two days after treatment with allsterpaullone, cells were fixed and stained with SMN antibody or GFP antibody.
mES cells were differentiated into motor neurons according to methods adapted from Wichterle et. al., Cell (2002), 110:385-397. Briefly, mES cells were grown to 70-80% confluence in 10-cm plates (Falcon) in ES cell medium. To form embryoid bodies, cells were washed once with PBS to eliminate mES medium and then incubated with 1 ml of 0.25% trypsin (GIBCO) for 5-10 min at 21-25° C. (RT). Cells were then resuspended in 10 ml of DM1 medium (DMEM-F12, GIBCO), 10% knockout serum (GIBCO), penicillin, streptomycin, glutamine (GIBCO) and 2-mercaptoethanol (GIBCO), counted and plated at a concentration of 200,000 cells per ml in Petri dishes (Falcon). Two days later, embryoid bodies were collected and resuspended into new Petri dishes containing DM1 medium supplemented with RAc (100 nM; stock 1 mM in DMSO, Sigma) and HhAg (100 nM). […] treatment was repeated with the same concentration of RAc (100 nM) and high concentration of HhAg (1 μM). On day 6, the embryoid bodies were collected in a 15-ml Falcon tube, and incubated in Earle's balanced salt solution with 20 units of Papain and 1,000 units of DNase I (Worthington Biochemical) for 10 min at 37° C. The mixture was then triturated with a 10-ml pipette and centrifugated for 5 min at 800 rpm. The resulting cell pellet was washed with PBS and resuspended in F12 medium (F12 medium, GIBCO) with 2% fetal bovine serum (GIBCO), B-27 supplement (GIBCO), (GDNF and BDNF, 20 ng ml^−1, R&D Systems). The cells were counted and plated on poly-ornithine coated 96-well plates (VWR).

[7] = test system: motor neurons; assay: Motor neuron survival (mouse motor neurons, compound treatment); type: cell-based
Protocol: Mouse motor neurons were treated with […] inhibitors. The levels of both cytoplasmic and nuclear SMN were detected and quantified using the method described in Example 2. The results shown in FIG. 14b indicate that […] inhibitors increase motor neuron survival.
Another way of assessing motor neuron survival is by withdrawing the neurotrophic factors from the media. Briefly, motor neurons are grown in media containing neurotrophic factors. The neurotrophic factors are then withdrawn from the growth media, e.g., cells transferred to media having no neurotrophic factors or neurotrophic factor containing media exchanged with neurotrophic factors lacking media. The compound of interest is added and motor neurons are counted on a daily basis.

T1 sequence (P49841 whole entry): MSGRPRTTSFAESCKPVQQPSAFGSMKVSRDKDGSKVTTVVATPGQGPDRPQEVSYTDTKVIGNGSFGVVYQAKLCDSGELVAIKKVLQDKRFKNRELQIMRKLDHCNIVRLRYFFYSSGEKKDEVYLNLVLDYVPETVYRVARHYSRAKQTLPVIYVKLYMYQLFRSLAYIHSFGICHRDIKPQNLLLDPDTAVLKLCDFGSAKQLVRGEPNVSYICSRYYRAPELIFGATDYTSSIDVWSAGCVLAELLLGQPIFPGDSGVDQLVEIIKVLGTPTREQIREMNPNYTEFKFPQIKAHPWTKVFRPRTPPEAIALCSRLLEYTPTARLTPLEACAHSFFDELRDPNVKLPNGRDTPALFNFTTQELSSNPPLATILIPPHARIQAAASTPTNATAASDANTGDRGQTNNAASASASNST

With `COc1cc2ncc(-c3ccccc3)nc2cc1OC` [AG-1296] the “SMN level in fibroblast screen (increase or decrease)” value (“SMN level … (increase or decrease)” for short) [1] was “decreased SMN”, the “decrease of basal level of SMN” value ([2]; added to the regular serum media in which cells are maintained, no added PDGF) was 20% and the “PDGF-stimulated SMN increase in presence of inhibitor (in words)” value [3] was “sufficient to prevent PDGF effect on SMN; also recorded: abrogated”. For the same compound, the “PDGF-stimulated SMN increase in presence of inhibitor (in words)” value ([3]; listed as AG-1236) was “blocked; also recorded: abolished”.

In the case of `COc1ccc(CNC(=O)Nc2ncc([N+](=O)[O-])s2)cc1` [AR-A014418], the “SMN level … (increase or decrease)” value [1] is reported as “SMN is increase”, the “SMN level fold increase” value ([2]; at a concentration of 23 μM) is reported as 2 fold and the “p-GSK-Ser9 phosphorylation (in words)” value ([4]; patient fibroblasts) is reported as “promoted phosphorylation of p-GSK-Ser9”.

With `COc1cc(OC)c2cc(-c3ccncc3)cnc2c1.Cl.Cl` [DMPQ] the “SMN level … (increase or decrease)” value [1] was “decreased SMN”, the “levels of cytoplasmic and nuclear SMN (in words)” value [2] was “decreases” and the “levels of cytoplasmic and nuclear SMN (in words)” value ([2]; listed as DMPQ dihydrochloride) was “decrease”. The “PDGF-stimulated SMN increase in presence of inhibitor (in words)” value [3] was “sufficient to prevent PDGF effect on SMN; also recorded: abrogated; also recorded: blocked; also recorded: abolished”.

For `Oc1cccc(-c2nc(N3CCOCC3)c3oc4ncccc4c3n2)c1` [PI-103], the “SMN level … (increase or decrease)” value [1] was “decreased SMN”, the “PDGF-stimulated SMN increase in presence of inhibitor (in words)” value [3] was “PDGF does not increase the levels of SMN; also recorded: able to prevent PDGF induced SMN increase in all cellular compartments; also recorded: completely abolished” and the “PDGF-stimulated SMN increase in presence of inhibitor (in words)” value ([3]; listed as P1-103) was “abrogated”.

For `Cn1cc(C2=C(c3ccc(Cl)cc3Cl)C(=O)NC2=O)c2ccccc21` [SB216763], the “protection from EGTA induced death” value [5] is given as “able to protect PC12 cells from EGTA induced death”.

With `CC(/C=C/C(=O)NO)=C\[C@@H](C)C(=O)c1ccc(N(C)C)cc1` [Trichostatin] the “SMN levels in motor neurons (in words)” value [6] was “increase SMN”, the “SMN levels in motor neurons (in words)” value ([6]; listed as Trichastatin) was “increase SMN levels” and the “effect on GEMs (number / intensity, in words)” value ([2]; fibroblasts) was “increased GEM counts at the lower concentrations”. For the same compound, the “nuclear SMN at the higher dosage (in words)” value ([2]; fibroblasts, higher dosage) was “increased nuclear SMN predominantly”.

In the case of `COc1cc2c(cc1OC)[C@@H]1C(=O)c3ccc4c(c3O[C@@H]1CO2)C=CC(C)(C)O4` [deguelin], the “spot intensity in ES-derived motor neurons” value [6] is reported as “decrease” and the “SMN levels in motor neurons (in words)” value [6] is reported as “decrease”.

For `O=C1Cc2c([nH]c3ccc(Br)cc23)-c2ccccc2N1` [kenpaullone, 9-bromopaullone], the “SMN levels in motor neurons (in words)” value [6] was “without increasing SMN protein levels” and the “motor neuron survival (in words)” value [7] was “promote motor neuron survival”.

With `C=C(C)[C@H]1Cc2c(ccc3c2O[C@@H]2COc4cc(OC)c(OC)cc4[C@@H]2C3=O)O1` [roteonone] the “spot intensity in ES-derived motor neurons” value [6] was “decrease” and the “SMN levels in motor neurons (in words)” value [6] was “decrease”.

With CHIR98014 the “SMN level fold increase” value [2] was “over 2.5 fold” and the “p-GSK-Ser9 phosphorylation (in words)” value [4] was “promoted phosphorylation of p-GSK-Ser9”.
